Assay results as given in patent publication US5990137A, “Method of inhibiting NADPH oxidase” (Idun Pharmaceuticals, Inc., priority 1998, dated 1999).

Key:
[1] = tested on: isolated neutrophils (opsonized zymosan-stimulated oxidative burst); experiment: Measurement of chemiluminescence of isolated neutrophils (neutrophil burst, Lucigenin); format: cell-based; details: for inhibition at 50 µM / IC50: Neutrophil; for inhibition at 50 µM: percent inhibition at 50 μM, single concentration, read-out: Neutrophil Burst Screen Value (% @ 50 μM); for Neutrophil Burst IC50 (Lucigenin) / IC50: opsonized zymosan, 37° C., 14 min, lucigenin
Procedure: Whole blood (150 ml) was anticoagulated with Acid Citrate Dextrose (ACD) using a ratio of 1:5 ACD to blood.
All steps are to be performed using polypropylene plastic ware.
a. Whole blood (60 ml) was added to each of three 100 ml polypropylene graduated cylinders containing 30 ml of […]. The cylinders were covered securely with Parafilm. The blood was allowed to sediment for approximately 1 hour at room temperature.
b. The turbid straw-colored layer was harvested from the top of the cylinders into 50 ml conical polypropylene tubes. The white blood cells were pelleted by centrifugation at 240×g (Sorvall at 1200 rpm) for 12 min. at 4° C. with the brake on low.
c. The supernatant was removed by aspiration and the pooled pellet resuspended in 4-50 ml cold PBS (w/o Ca, Mg). It was then centrifuged at 240×g (Sorvall at 1200 rpm) for 6 min. at 4° C. with the brake on high.
a. The supernatant was aspirated and the pellet resuspended in 12 ml of cold cell culture-grade water. The pellet was titrated gently with a pipet for exactly 30 seconds then 4 ml of cold 0.6 M KCl was added. It was then QSed to 50 ml with cold PBS (w/o Ca, Mg) and centrifuged at 300×g (Sorvall TY 6000D at 1400 rpm) for 6 min. at 4° C. with the brake on high.
b. Step 2.a. was repeated once more.
a. The supernatant was aspirated and the cells were resuspended in 2.5 ml cold PBS (w/o Ca, Mg). The cell suspension was carefully layered over 3 ml Ficoll-Hypaque in a 15 ml polypropylene conical tube. It was then centrifuged at 400×g (Sorvall at 1900 rpm) for 30 min. at 4° C. with the brake on low.
b. Aspiration occurred down to the neutrophil pellet. The pellet was resuspended fin cold PBS (w/o Ca, Mg) and transferred to a 50 ml conical tube. It was then QSed to 50 ml with cold PBS (w/o Ca, Mg) and centrifuged at 300×g (Sorvall at 1400 rpm) for 6 min. at 4° C. with the brake on high.
d. The supernatant was aspirated and the pellet resuspended in 50 ml cold PBS (w/o Ca, Mg) and centrifuged at 300×g (Sorvall at 1400 rpm) for 6 min. with the brake on high.
e. The supernatant was aspirated and the neutrophil pellet resuspended in 4.0 ml cold PBS (w/o Ca, Mg). It was kept on ice. Trypan blue (10 μl) was diluted (1:40) and the cells were counted using a hemacytometer. The cell number and viability by Trypan […] exclusion were determined and the results recorded. The cells were diluted to 5.0×10^6 cells/ml with cold PBS-G (with Ca, Mg) prior to plating for the assay.
2. […] The suspension was centrifuged and the particles resuspended in 7 ml of PBS-G (with Ca, Mg)(18 mg/ml). It was stored on ice until used (briefly vortexed prior to pipetting).
4. PBS-G (10 μl) (with Ca, Mg) was added to the wells in a white 96 well plate.
6. The compound dilutions (10 μl) were added to the appropriate wells.
7. The cell prep was diluted to 5.0×10^6 cells/ml with PBS-G (with Ca, Mg) in a separate multipipette trough.
8. The neutrophil suspension (20 μl) was added to the appropriate wells.
9. The plate was incubated at 37° C. for three minutes.
10. Zymosan (10 μl of 18 mg/ml) was added to the appropriate wells.
11. The plate was read on the luminometer (Labsystems Luminoskan, Needham Heights, Mass.) for 14 min. at 37° C. on the kinetic mode and the results recorded using the software DeltaSoft.
12. The plate data was exported into Excel to determine percent of control and derive the means and standard deviations for the data. The IC50 was determined graphically from the data and plotted using SigmaPlot. For cases where one concentration (50 μM) was tested, percent inhibition was compared to that seen with 50 μM apocynin.
13. The results are set forth below in Table 1 as "Neutrophil Burst IC50 (Lucigenin)". The results for 50 μM inhibition in the single assay are reported as "Neutrophil Burst Screen Value (% @ 50 μM)".

Xanthine oxidase = biological target: T1, Xanthine oxidase (Bos taurus, UniProt P80457); experiment: Xanthine oxidase assay (superoxide by hypoxanthine/xanthine oxidase, Lucigenin); format: biochemical; details: hypoxanthine 150 μM, buttermilk xanthine oxidase, 37° C.; for IC50: read-out: Xanthine Oxidase Inhibition IC50 (Integral)
T1 construct: purchased Sigma x-1875; host or cells: buttermilk

Jurkat cells = experiment: Cytotoxicity assay employing Jurkat cells (MTT); format: cell-based; details: Jurkat clone E6-1, MTT, 37° C. overnight
Procedure: This Assay was performed as set forth in Hansen et al., Journal of Immunological Methods, 119:203-210 (19930; Mosmann, Journal of Immunological Methods, 65:55-63 (1983); and Slater et al., Biochem. Ciophys. Acta, 77:383 (1963); except as noted below.
Compounds from the following Examples were tested for cytotoxicity using MTT (i.e., 3-[4,5-Dimethylthiazol-2-yl]-2,5-diphenyltetrazolium bromide; Thiazolyl Blue (Sigma, St. Louis, Mo.)).
MTT was dissolved in basal culture media at a concentration of 5 mg/ml. If necessary, it was briefly warmed at 37° C. to fully dissolve, passed through a sterile filter, and aliquoted and stored at -20° C. until use.
The Extraction Buffer used was a solution composed of 20% SDS, 2.5% Acetic Acid (80% 6 stock solution), 2.5% 1N Hcl, 50% Dimethylformamide/50% dissolved in distilled water, SDS was dissolved into buffer components with gentle heating and stirring and the resultant solution was filtered and stored until use.
The MTT solution was added in an amount equal to 10% of the culture volume to each well in a 96-well plate containing 100,000 Jurkat cells/well.
The wells were then incubated for 0.5 to 2 hours in standard culture conditions. A volume of extraction buffer equal to the culture volume was added. The 96-well plate was then sealed. The formazan crystals were allowed to extract at 37° C. for four hours. The plate was read on a spectrophotometer [Spectramax 250, Molecular Devices, Sunnyvale, Calif.] at an absorbance wavelength of 560 nm. (The background absorbance measured at 650 nm was subtracted from the value measured at 560 nm.)
The Jurkat cells (Jurkat clone E6-1) were grown using standard conditions supplied by ATCC (American Type Culture Collection--Rockville, Md.).
The compounds diluted in medium (RPMI 1640 plus 10% fetal bovine serum) stock solution of 100 μM, then this stock solution was further diluted 3-fold before testing in the instant assay.
2-Hydroxy-3-methoxy-E-nitrostyrene tested at 100 μM as death control cells, incubated under the above conditions at 37° C. overnight.
The Extraction Buffer (100 μl) was added to each well and the resultant suspension was incubated 4 hours at 37° C.
The results from this procedure are set forth above in Table 1 in the column marked "Cytotox (MTT/Jurkat)". […] Toxicity was rated "3" if dead cells and >50% reduction in MTT absorbance at 1 μM test compound.

T1 sequence (P80457 whole entry): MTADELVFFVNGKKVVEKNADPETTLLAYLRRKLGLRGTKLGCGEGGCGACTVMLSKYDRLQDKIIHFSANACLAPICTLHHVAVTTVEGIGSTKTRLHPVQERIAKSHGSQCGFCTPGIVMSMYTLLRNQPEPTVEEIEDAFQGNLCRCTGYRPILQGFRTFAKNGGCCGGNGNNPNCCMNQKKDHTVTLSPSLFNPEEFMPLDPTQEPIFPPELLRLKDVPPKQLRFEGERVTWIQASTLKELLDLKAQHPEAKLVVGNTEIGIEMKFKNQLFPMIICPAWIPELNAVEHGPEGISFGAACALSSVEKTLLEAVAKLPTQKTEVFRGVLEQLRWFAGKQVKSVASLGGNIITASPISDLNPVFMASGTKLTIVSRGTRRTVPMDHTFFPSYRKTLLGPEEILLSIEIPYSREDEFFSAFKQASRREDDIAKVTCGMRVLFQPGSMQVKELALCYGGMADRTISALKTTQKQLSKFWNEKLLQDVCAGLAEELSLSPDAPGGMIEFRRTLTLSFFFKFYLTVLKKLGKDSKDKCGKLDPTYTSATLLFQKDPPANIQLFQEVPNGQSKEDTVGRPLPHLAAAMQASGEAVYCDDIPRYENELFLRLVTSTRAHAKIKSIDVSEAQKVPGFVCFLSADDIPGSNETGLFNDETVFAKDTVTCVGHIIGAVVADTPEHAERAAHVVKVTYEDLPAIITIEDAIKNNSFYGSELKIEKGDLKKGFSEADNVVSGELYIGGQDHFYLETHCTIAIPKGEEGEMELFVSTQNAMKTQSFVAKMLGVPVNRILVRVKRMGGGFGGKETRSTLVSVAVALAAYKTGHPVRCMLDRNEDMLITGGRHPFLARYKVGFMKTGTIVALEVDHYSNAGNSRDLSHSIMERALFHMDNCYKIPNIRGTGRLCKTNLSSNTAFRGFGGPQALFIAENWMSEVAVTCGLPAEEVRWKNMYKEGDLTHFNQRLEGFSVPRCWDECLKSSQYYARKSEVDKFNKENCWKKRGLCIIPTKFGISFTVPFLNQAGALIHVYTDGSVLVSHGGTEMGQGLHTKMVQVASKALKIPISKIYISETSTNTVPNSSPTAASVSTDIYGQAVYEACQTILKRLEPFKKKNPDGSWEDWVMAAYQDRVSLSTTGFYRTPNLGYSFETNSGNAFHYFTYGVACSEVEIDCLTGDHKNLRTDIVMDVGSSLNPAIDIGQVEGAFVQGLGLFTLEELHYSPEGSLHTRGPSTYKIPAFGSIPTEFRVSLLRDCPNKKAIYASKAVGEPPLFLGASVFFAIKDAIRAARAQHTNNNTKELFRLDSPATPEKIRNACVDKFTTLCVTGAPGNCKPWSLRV

SMILES	Neutrophil Burst IC50 (Lucigenin) [1]	Xanthine Oxidase Inhibition IC50 (Integral) (Xanthine oxidase)	Cytotox (MTT/Jurkat) (Jurkat cells)	IC50 (Xanthine oxidase)	IC50 [1]	also measured
COc1cccc(/C=N/N=C/c2cccc(OC)c2O)c1O [A, Bis[3-methoxy-2-hydroxybenzaldehyde]trans,trans-azine]	No Effect	No Effect	0			inhibition at 50 µM [1]: 1.1%
COc1cc(C=Nc2nccs2)ccc1O [B, 2-N'-(3-methoxy-4-hydroxybenzylidene)-2-amino-1,3-thiazole]						inhibition at 50 µM [1]: 49.4%
COc1cc(/C=N/N=C/c2cc(OC)c(O)c(OC)c2)cc(OC)c1O [D, Bis[4-hydroxy-3,5-dimethoxybenzaldehyde]-trans,trans-azine]			1 (dead cells and >50% reduction in MTT absorbance were observed at 100 μM of the test compound)	70 µM		
COc1cc(/C=N/N=C/c2cc(Br)c(O)c(OC)c2)cc(Br)c1O [Example 1, Bis[3-Bromo-4-Hydroxy-5-Methoxybenzaldehyde]trans,trans-Azine]			0		38 µM	
COc1cccc(/C=N/N=C/c2cccc(OC)c2OC)c1OC [Example 2, Bis[2,3-Dimethoxybenzaldehyde]trans,trans-Azine]	No Effect	No Effect				
COc1ccc(/C=N/N=C/c2ccc(OC)cc2O)c(O)c1 [Example 3, Bis[2-Hydroxy-4-Methoxybenzaldehyde]trans,trans-Azine]	No Effect	No Effect				
COc1ccc(/C=N/N=C/c2ccc(OC)c(O)c2)cc1O [Example 4, Bis[3-Hydroxy-4-Methoxybenzaldehyde]trans,trans-Azine]	No Effect	No Effect				
COc1ccc(/C=N/N=C/c2ccc(OC)c(OC)c2)cc1OC [Example 5, Bis[3,4-Dimethoxybenzaldehyde]trans,trans-Azine]	No Effect	No Effect				
Oc1ccc(/C=N/N=C/c2ccc(O)cc2)cc1 [Example 6, Bis[4-Hydroxybenzaldehyde]trans,trans-Azine]		No Effect	0		13.5 µM	
COc1cc(/C(C)=N/N=C(\C)c2ccc(O)c(OC)c2)ccc1O [Example 7, Bis[4-Hydroxy-3-Methoxyacetophenone]trans,trans-Azine]		No Effect	1 (dead cells and >50% reduction in MTT absorbance were observed at 100 μM of the test compound)		33.1 µM	
CCOc1cc(/C=N/N=C/c2ccc(O)c(OCC)c2)ccc1O [Example 8, Bis[3-Ethoxy-4-Hydroxybenzaldehyde]trans,trans-Azine]	No Effect					
COc1cc(/C(C)=N/N=C(\C)c2cc(OC)c(O)c(OC)c2)cc(OC)c1O [Example 9, Bis[3,5-Dimethoxy-4-Hydroxyacetophenone]trans,trans-Azine]				20 µM	8.7 µM	
COc1cc(/C=N/N=C/c2ccc(O)cc2)ccc1O [Example 10, N-[4-Hydroxy-3-Methoxybenzaldehyde]-N'-[4-Hydroxybenzaldehyde]trans,trans-Azine]		No Effect	0		8.5 µM	
COc1cccc(/C=N/N=C/c2cccc(OC)c2)c1 [Example 11, Bis[3-Methoxybenzaldehyde]trans,trans-Azine]		No Effect				
CC(C)(C)c1cc(/C=N/N=C/c2cc(C(C)(C)C)c(O)c(C(C)(C)C)c2)cc(C(C)(C)C)c1O [Example 14, Bis[3,5-(tert-Butyl)-4-Hydroxybenzaldehyde]trans,trans-Azine]	No Effect	No Effect				
C(=N\N=C\c1ccncc1)/c1ccncc1 [Example 15, Bis[Pyridine-4-Carboxaldehyde]trans,trans-Azine]	No Effect	No Effect				
COc1ccc(N=Cc2cc(C(C)(C)C)c(O)c(C(C)(C)C)c2)cc1 [Example 16, N-(3,5-di(tert-Butyl)-4-Hydroxybenzylidene)-p-Methoxyaniline]		No Effect	0			
COc1cc(C=Nc2ccc(F)cc2)cc(OC)c1O [Example 19, N-(3,5-Dimethoxy-4-Hydroxybenzylidene)-p-Fluoroaniline]				28 µM	13.2 µM	
COc1cc(C=Nc2ccc(Br)cc2)cc(OC)c1O [Example 20, N-(3,5-Dimethoxy-4-Hydroxybenzylidene)-p-Bromoaniline]				34 µM	9.9 µM	
COc1cc(C=Nc2nncs2)cc(OC)c1O [Example 21, R-N'-(3,5-Dimethoxy-4-Hydroxybenzylidene)-5-Amino-1,3,4-Thiadiazole]				2.1 µM	8 µM	
COc1cc(C=Nc2nncs2)ccc1O [Example 22, 5-N'-(3-Methoxy-4-Hydroxybenzylidene)-5-Amino-1,3,4-Thiadiazole]				16.3 µM	15.5 µM	
COc1cc(C=Nc2ccccc2)cc(OC)c1O [Example 23, N-(3,5-Dimethoxy-4-Hydroxybenzylidene)Aniline]				14 µM	5 µM	
